This is an account of results in patent US8455475B2 (Gruenenthal GmbH, priority 2009, dated 2013).

Test [1] concerns the target T1, human B1R (bradykinin receptor 1) (Homo sapiens, UniProt P46663).
T1 construct: expressed in transfected cells; host or cells: CHO K1 cells
T1 sequence (P46663 1-353): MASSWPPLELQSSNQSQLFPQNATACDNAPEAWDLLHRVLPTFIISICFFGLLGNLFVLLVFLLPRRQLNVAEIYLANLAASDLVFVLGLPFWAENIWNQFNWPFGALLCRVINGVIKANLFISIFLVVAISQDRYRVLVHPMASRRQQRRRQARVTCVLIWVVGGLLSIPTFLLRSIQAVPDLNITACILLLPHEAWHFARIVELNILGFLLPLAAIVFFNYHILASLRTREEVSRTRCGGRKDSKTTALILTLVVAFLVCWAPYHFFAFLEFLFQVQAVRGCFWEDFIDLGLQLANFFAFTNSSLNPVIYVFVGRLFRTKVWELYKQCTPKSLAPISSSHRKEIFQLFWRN
Description: FLIPR Ca2+ assay (Fluo-4) on CHO K1 cells stably transfected with the human B1R gene (hB1R cells): % inhibition at 10 μM / IC50, agonist Lys-Des-Arg9-bradykinin. The format is cell-based. As to conditions: for inhibition at 10 µM: CHO-K1, human B1R. The procedure, abridged: (§1)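 Stably transfected CHO K1 cells loaded with Fluo-4 and read on FLIPR (λex 488, λem 540 nm; peak fluorescence). Test substance (10 μM) added first, then after 10–20 min the agonist at EC80; % inhibition versus maximum achievable inhibition. IC50 from several concentrations, n=2–3, N≥2.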

Test [2] addresses T2, rat B1R (bradykinin receptor 1) (Rattus norvegicus, UniProt P97583).
T2 construct: expressed in transfected cells; host or cells: CHO K1 cells
T2 sequence (P97583 1-337): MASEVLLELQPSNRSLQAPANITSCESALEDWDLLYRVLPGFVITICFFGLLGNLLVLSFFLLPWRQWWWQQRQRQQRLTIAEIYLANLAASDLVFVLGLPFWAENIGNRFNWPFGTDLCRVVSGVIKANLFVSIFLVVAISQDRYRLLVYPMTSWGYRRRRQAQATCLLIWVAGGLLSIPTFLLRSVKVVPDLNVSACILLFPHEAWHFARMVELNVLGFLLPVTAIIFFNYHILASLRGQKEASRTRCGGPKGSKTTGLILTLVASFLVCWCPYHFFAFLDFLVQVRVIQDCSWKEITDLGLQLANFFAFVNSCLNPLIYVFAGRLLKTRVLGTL
Description: FLIPR Ca2+ assay (Fluo-4) on CHO K1 cells stably transfected with the B1R gene of the rat (rB1R cells): % inhibition at 10 μM / IC50, agonist Des-Arg9-bradykinin. Format: cell-based. As to conditions: for inhibition at 10 µM: CHO-K1, rat B1R. In outline: as §1

A word on the inhibition: it is the drop in the measured response relative to a control, in per cent. Take `O=C(NC1CCc2ccc(C(=O)N3CCC4(CC3)CCN(c3ccncc3)CC4)cc21)c1cc(Cl)ccc1Cl` (centres unmarked) [IND_CC-207, 2,5-Dichloro-N-[6-(9-pyridin-4-yl-3,9-diazaspiro[5.5]undecane-3-carbonyl)-2,3-dihydro-1H-inden-1-yl]-benzamide]: the inhibition at 10 µM in test [1] came out at 98%; in test [2], 101%.
The corresponding values for `O=C(Cc1ccccc1F)N[C@@H]1CCc2ccc(C(=O)N3CCC4(CCN(c5ccncc5)CC4)C3)cc21` [Example H-152, 2-(2-Fluorophenyl)-N-[(1R)-6-(8-pyridin-4-yl-3,8-diazaspiro[4.5]decane-3-carbonyl)-2,3-dihydro-1H-inden-1-yl]-acetamide] are 99% and 101%.
For `O=C(c1ccc2c(c1)C(NS(=O)(=O)c1ccccc1Cl)CC2)N1CCC2(CC1)CCN(c1ccncc1)C2` (centres unmarked) [Ind_CC-049, 2-chloro-N-[6-(2-pyridin-4-yl-2,8-diazaspiro[4.5]decane-8-carbonyl)-2,3-dihydro-1H-inden-1-yl]-benzenesulfonic acid amide], the inhibition at 10 µM in test [1] turned out to be 99%; in test [2], 101%.
As for `O=C(NC1CCc2ccc(C(=O)N3CCC4(CCN(C(=O)Cc5ccc(Cl)cc5)CC4)C3)cc21)c1ccccc1Cl` (centres unmarked) [IND_CC-577, 2-Chloro-N-[6-[8-[2-(4-chlorophenyl)-acetyl]-2,8-diazaspiro[4.5]decane-2-carbonyl]-2,3-dihydro-1H-inden-1-yl]-benzamide], the inhibition at 10 µM in test [1] worked out at 21%; in test [2], 96%.
The corresponding values for `O=C(N[C@@H]1CCCc2ccc(C(=O)N3CCC4(CCN(c5ccncc5)CC4)C3)cc21)c1ccccc1Cl` [Example H-11, 2-chloro-N-[(1R)-7-(8-pyridin-4-yl-3,8-diazaspiro[4.5]decane-3-carbonyl]-1,2,3,4-tetrahydro-naphthalen-1-yl]-benzamide] are 99% and 103%.
The corresponding values for `O=C(N[C@@H]1CCc2c(C(=O)N3CCC4(CCN(c5ccncc5)CC4)C3)cccc21)c1ccccc1Cl` [Example H-162, 2-Chloro-N-[(1R)-4-(8-pyridin-4-yl-3,8-diazaspiro[4.5]decane-3-carbonyl)-2,3-dihydro-1H-inden-1-yl]-benzamide] are 13% and 61%.
For `CC1(C)CC(NC(=O)c2ccc(F)cc2Cl)c2cc(C(=O)N3CCC4(CC3)CCN(c3ccncc3)CC4)ccc21` (centres unmarked) [IND_CC-276, 2-Chloro-N-[3,3-dimethyl-6-(3-pyridin-4-yl-3,9-diazaspiro[5.5]undecane-9-carbonyl)-1,2-dihydro-inden-1-yl]-4-fluoro-benzamide], in that order: 100% and 107%.
With `O=C(Nc1ccc(Cl)c(Cl)c1)NC1CCc2ccc(C(=O)N3CCC4(CC3)CCN(c3ccncc3)C4)cc21` (centres unmarked) [Ind_CC-047], the “% Inhibition (human B1R) at 10 μM” value in test [1] (human B1R) was 94%. The “% Inhibition (rat B1R) at 10 μM” value in test [2] (rat B1R) stood at 60%.
Take `O=C(c1ccc2c(c1)[C@H](NS(=O)(=O)c1cc(Cl)ccc1Cl)CC2)N1CCC2(CCN(c3ccncc3)CC2)C1` [Example H-142, 2,5-Dichloro-N-[(1R)-6-(8-pyridin-4-yl-3,8-diazaspiro[4.5]decane-3-carbonyl)-2,3-dihydro-1H-inden-1-yl]-benzenesulfonic acid amide]: the inhibition at 10 µM turned out to be 98% in test [1] and 103% in test [2].
For `O=C(NC1CCc2ccc(C(=O)N3CCC4(CC3)CCN(c3ccncc3)C4)cc21)c1cccc(Cl)c1Cl` (centres unmarked) [IND_CC-267, 2,3-Dichloro-N-[6-(2-pyridin-4-yl-2,8-diazaspiro[4.5]decane-8-carbonyl)-2,3-dihydro-1H-inden-1-yl]-benzamide], in that order: 86% and 106%.
For `O=C(N[C@@H]1CCOc2cc(C(F)(F)F)c(C(=O)N3CCC4(CCN(c5ccncc5)CC4)C3)cc21)c1ccccc1Cl` [Example H-107, 2-Chloro-N-[(4R)-6-(8-pyridin-4-yl-3,8-diazaspiro[4.5]decane-3-carbonyl)-7-(trifluoromethyl)-3,4-dihydro-2H-chromen-4-yl]-benzamide], in that order: 72% and 108%.
The corresponding values for `O=C(c1ccc2c(c1)[C@H](N1Cc3cccc(Cl)c3C1=O)CC2)N1CCC2(CCN(c3ccncc3)CC2)C1` [Example H-96, 7-Chloro-2-[(1R)-6-(8-pyridin-4-yl-3,8-diazaspiro[4.5]decane-3-carbonyl)-2,3-dihydro-1H-inden-1-yl]-2,3-dihydro-isoindol-1-one] are 100% and 104%.
Consider `O=C(NC1CCc2ccc(C(=O)N3CCC4(CCN(Cc5ccncc5)CC4)CC3)cc21)c1sccc1Cl` (centres unmarked) [Ind_CC-104, 3-chloro-N-[6-[9-(pyridin-4-yl-methyl)-3,9-diazaspiro[5.5]undecane-3-carbonyl]-2,3-dihydro-1H-inden-1-yl]-thiophene-2-carboxylic acid amide], for which the figures for the inhibition at 10 µM in test [1] and in test [2] were 33% and 102%, respectively.
Turning to `O=C(NC1CCc2ccc(C(=O)N3CCC4(CCC(N5CC(F)(F)C5)CC4)CC3)cc21)c1ccccc1Cl` (centres unmarked) [Example H-07, 2-chloro-N-[6-[9-(3,3-difluoro-azetidin-1-yl)-3-azaspiro[5.5]undecane-3-carbonyl]-2,3-dihydro-1H-inden-1-yl]-benzamide], the figures for the inhibition at 10 µM in test [1] and in test [2] were 34% and 69%, respectively.
For `COc1cc(C)c(C(=O)NC2CCc3ccc(C(=O)N4CCC5(CC4)CCN(c4ccc(F)cc4)CC5)cc32)c(C)c1` (centres unmarked) [Ind_CC-091, N-[6-[9-(4-fluorophenyl)-3,9-diazaspiro[5.5]undecane-3-carbonyl]-2,3-dihydro-1H-inden-1-yl]-4-methoxy-2,6-dimethyl-benzamide], in that order: 24% and 50%.
As for `O=C(NC1CCc2ccc(C(=O)N3CCC4(CCN(c5ccc(C(F)(F)F)cn5)CC4)C3)cc21)c1ccccc1Cl` (centres unmarked) [Example H-48, 2-chloro-N-[6-[8-[5-(trifluoromethyl)-pyridin-2-yl]-3,8-diazaspiro[4.5]decane-3-carbonyl]-2,3-dihydro-1H-inden-1-yl]-benzamide], the inhibition at 10 µM in test [1] was 63%; in test [2] it was 97%.
For `O=C(NC1CCc2ccc(C(=O)N3CCC4(CC3)CCN(c3ccc(F)cc3)CC4)cc21)c1ccccc1Cl` (centres unmarked) [Ind_CC-097, 2-chloro-N-[6-[9-(4-fluorophenyl)-3,9-diazaspiro[5.5]undecane-3-carbonyl]-2,3-dihydro-1H-inden-1-yl]-benzamide], the inhibition at 10 µM in test [1] was found to be 33%; in test [2], 90%.
For `O=C(N[C@@H]1CCc2ccc(C(=O)N3CCC4(CCC(C(=O)N[C@H]5CN6CCC5CC6)CC4)CC3)cc21)c1ccccc1Cl` [Example H-52, N-[(5R)-1-Azabicyclo[2.2.2]octan-5-yl]-3-[(3R)-3-[(2-chloro-benzoyl)amino]-2,3-dihydro-1H-indene-5-carbonyl]-3-azaspiro[5.5]undecane-9-carboxylic acid amide], in that order: 28% and 46%.
The corresponding values for `Cc1cc2c(cc1C(=O)N1CCC3(CC1)CCN(c1ccncc1)CC3)[C@H](NC(=O)c1ccccc1Cl)CC2` [Example H-66, 2-Chloro-N-[(1R)-5-methyl-6-(9-pyridin-4-yl-3,9-diazaspiro[5.5]undecane-3-carbonyl)-2,3-dihydro-1H-inden-1-yl]-benzamide] are 99% and 102%.
The corresponding values for `CN(C(=O)Cc1ccccc1Cl)C1CCc2ccc(C(=O)N3CCC4(CC3)CCN(c3ccncc3)CC4)cc21` (centres unmarked) [Ind_CC-019, 2-(2-chlorophenyl)-N-methyl-N-[6-(9-pyridin-4-yl-3,9-diazaspiro[5.5]undecane-3-carbonyl)-2,3-dihydro-1H-inden-1-yl]-acetamide] are 99% and 95%.
On to `O=C(NC1CCc2ccc(C(=O)N3CCC4(CC3)CCN(c3ccncc3)CC4)cc21)c1c(Cl)cccc1Cl` (centres unmarked) [IND_CC-269, 2,6-Dichloro-N-[6-(9-pyridin-4-yl-3,9-diazaspiro[5.5]undecane-3-carbonyl)-2,3-dihydro-1H-inden-1-yl]-benzamide], for which the inhibition at 10 µM in test [1] is 100%; in test [2], 107%.
With `O=C(c1ccc2c(c1)[C@H](NS(=O)(=O)c1c(Cl)cccc1Cl)CC2)N1CCC2(CCN(c3ccncc3)CC2)C1` [Example H-119, 2,6-Dichloro-N-[(1R)-6-(8-pyridin-4-yl-3,8-diazaspiro[4.5]decane-3-carbonyl)-2,3-dihydro-1H-inden-1-yl]-benzenesulfonic acid amide], the inhibition at 10 µM in test [1] and in test [2] was 100% in each case.
